Assays:
[1] = biological target: mTOR (human recombinant aa mTOR 1360-2549) (Homo sapiens (Human), UniProt P42345); assay: mTOR enzymatic test by TR-FRET (phosphorylation of GFP-4EBP1); type: biochemical
Method: Model 1: mTOR Enzymatic Test by TR-FRET (Time-resolved Fluorescence Resonance Energy Transfer).
The test detects the phosphorylation of the substrate GFP-4EBP1 using a terbium-labelled antibody that is specific for the phospho-Thr46 epitope. Binding of the Tb-antibody to the phosphorylated GFP peptide allows the transfer of energy from Tb, excited at 340 nm, to GFP with an increase in the fluorescence emission of the GFP at 520 nm. […] The mixture is incubated for 30 minutes at room temperature. 10 μl of solution are taken up and the reaction is quenched by adding 10 μl of Tb-antibody solution (Invitrogen PV4757)/EDTA (2 nM Tb-Ac and 10 mM EDTA final). After 60 minutes at room temperature, the fluorescence at 490 nm, from the Tb emission, and at 520 nm, from the GFP emission, is measured in a BMG PHERAstar reader equipped with a Lanthascreen™ filter (excitation at 340 nm, emission at 490 and 520 nm). The results are given in the form of the 520/490 ratio.

U87MG tumour cells = assay: Test of in vitro proliferation of U87MG tumour cells; type: cell-based; conditions: Homo sapiens, U-87 MG, 72 h, U87MG cells, 72 hours; read-out: U87 Cell Proliferation IC50
Method: Model 4: Test of in vitro Proliferation of U87MG Tumour Cells.
The cell growth is determined with the reagent CellTiter 96 AQueous One Solution Cell Proliferation Assay from Promega (Cat. No. G3581).

PI3Kα (p110α/p85α) = PI3Kα (p110α/p85α) (Homo sapiens (Human), UniProt P42336); assay: PI3Kα enzymatic test by measuring the consumption of ATP; type: biochemical
Method: Model 2: PI3Kα Enzymatic Test by Measuring the Consumption of ATP.
The test uses a lucifeurerin/luciferase system to measure the concentration of ATP and its consumption during the enzymatic reaction. The test is performed in 96-well format (Corning/Costar 96 black flat-bottomed half-wells plate, ref. 3694) in a total volume of 30 μl.
To 1 μl of inhibitor in 100% DMSO are added (final concentrations) 50 μM of the substrate PIP2 ((L-α-phosphatidyl-D-myoinositol 4,5-bisphosphate, Echelon 117P-4516-0500), 2 μM of ATP and 1.7 μg/ml of PI3Kα, (p110α/p85α, Invitrogen PV4788) in a buffer of Tris/HCl 50 mM pH 7.5, EGTA 1 mM, MgCl2 10 mM, Chaps 0.03%, 1 mM DTT). After 90 minutes, the reaction is quenched by adding 20 μl/well of KinaseGlo reagent (Promega V6713). After 10 minutes in the dark, the luminescence is read on the PHERAStar microplate reader (reading at 0.8 sec/well).
The IC50 values are determined by the preparation of successive threefold dilutions on at least a scale of 10 000.

Sequence of PI3Kα (p110α/p85α) (P42336 whole entry): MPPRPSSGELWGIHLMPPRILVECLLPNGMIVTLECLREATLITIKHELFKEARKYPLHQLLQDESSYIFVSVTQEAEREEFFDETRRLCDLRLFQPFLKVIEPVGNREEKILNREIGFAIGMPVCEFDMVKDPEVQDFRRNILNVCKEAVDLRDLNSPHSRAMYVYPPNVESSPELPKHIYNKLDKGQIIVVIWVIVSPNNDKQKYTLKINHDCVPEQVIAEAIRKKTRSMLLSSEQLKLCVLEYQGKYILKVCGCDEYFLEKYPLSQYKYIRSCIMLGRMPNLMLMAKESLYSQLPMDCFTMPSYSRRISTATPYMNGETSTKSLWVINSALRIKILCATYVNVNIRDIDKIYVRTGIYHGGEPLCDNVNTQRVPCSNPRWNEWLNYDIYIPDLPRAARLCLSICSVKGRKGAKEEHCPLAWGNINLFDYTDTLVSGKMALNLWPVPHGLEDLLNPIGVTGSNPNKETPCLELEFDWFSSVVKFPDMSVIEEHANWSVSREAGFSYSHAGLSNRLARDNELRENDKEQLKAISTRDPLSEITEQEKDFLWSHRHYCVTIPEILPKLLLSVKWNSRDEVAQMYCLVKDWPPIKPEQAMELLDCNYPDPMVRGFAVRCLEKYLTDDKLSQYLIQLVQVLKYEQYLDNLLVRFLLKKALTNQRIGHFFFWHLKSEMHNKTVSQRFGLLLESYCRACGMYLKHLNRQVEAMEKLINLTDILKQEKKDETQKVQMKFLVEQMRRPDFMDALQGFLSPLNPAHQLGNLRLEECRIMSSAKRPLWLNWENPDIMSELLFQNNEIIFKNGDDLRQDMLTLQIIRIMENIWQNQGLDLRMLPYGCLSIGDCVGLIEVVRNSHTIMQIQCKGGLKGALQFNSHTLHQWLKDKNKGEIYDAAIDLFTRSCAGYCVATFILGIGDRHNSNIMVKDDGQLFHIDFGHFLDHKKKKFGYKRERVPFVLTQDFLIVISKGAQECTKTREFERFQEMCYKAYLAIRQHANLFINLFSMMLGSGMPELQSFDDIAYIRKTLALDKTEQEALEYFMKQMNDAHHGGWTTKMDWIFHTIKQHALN
Sequence of PI3Kα (p110α/p85α) (P27986 whole entry partner): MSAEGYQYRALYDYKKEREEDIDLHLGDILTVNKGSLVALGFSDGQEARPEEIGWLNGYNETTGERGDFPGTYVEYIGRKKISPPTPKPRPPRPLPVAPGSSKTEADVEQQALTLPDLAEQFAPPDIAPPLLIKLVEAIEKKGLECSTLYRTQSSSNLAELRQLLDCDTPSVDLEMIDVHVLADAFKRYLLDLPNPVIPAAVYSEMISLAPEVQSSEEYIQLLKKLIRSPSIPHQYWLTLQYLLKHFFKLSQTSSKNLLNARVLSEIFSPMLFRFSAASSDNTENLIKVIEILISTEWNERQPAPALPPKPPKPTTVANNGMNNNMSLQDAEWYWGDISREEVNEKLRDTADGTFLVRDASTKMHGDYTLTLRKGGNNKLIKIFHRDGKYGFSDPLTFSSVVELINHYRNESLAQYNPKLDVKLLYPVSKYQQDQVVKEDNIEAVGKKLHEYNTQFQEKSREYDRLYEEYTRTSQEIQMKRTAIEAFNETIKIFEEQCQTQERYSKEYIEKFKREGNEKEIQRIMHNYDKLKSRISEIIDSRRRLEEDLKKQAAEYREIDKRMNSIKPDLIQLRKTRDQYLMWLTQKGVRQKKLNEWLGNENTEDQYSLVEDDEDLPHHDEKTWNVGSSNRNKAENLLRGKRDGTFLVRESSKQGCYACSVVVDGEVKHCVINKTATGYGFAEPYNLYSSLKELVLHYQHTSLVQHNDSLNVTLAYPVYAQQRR
Sequence of mTOR (human recombinant aa mTOR 1360-2549) (P42345 1360-2549): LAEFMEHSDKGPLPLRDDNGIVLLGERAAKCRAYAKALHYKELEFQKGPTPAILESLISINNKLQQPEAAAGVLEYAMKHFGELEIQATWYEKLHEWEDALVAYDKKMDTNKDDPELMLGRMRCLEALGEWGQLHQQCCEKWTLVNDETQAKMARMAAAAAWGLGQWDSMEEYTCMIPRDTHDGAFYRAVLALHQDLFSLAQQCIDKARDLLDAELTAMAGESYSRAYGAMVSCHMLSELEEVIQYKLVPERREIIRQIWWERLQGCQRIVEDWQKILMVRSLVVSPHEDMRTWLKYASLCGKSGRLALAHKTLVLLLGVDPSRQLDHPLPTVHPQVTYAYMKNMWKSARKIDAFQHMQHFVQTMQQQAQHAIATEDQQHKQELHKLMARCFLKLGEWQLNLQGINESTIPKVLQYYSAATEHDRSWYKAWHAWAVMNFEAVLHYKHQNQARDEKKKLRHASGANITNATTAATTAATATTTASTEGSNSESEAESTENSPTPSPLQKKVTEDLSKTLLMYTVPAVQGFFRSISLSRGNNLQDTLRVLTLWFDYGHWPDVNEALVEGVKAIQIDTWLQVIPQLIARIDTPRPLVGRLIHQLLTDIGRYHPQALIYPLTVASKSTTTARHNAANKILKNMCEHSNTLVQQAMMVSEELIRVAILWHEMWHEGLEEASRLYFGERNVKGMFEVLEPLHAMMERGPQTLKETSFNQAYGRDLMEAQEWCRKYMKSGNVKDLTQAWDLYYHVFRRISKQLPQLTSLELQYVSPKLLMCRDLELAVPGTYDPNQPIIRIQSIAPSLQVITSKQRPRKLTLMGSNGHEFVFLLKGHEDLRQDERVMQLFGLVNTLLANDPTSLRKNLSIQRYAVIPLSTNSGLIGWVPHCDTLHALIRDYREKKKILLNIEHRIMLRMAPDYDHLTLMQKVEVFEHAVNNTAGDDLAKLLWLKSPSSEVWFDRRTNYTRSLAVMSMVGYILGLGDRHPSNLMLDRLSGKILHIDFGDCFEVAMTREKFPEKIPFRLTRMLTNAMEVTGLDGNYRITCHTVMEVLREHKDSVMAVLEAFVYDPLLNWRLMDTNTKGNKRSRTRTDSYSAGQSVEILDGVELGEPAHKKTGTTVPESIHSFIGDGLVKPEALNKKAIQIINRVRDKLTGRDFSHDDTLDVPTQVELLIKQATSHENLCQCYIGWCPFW

CCNC(=O)Nc1ccc(-c2nc(N3CCOCC3)nc3c2C(=O)N(CC)CCO3)cc1 [Example 97, 1-Ethyl-3-[4-(6-ethyl-2-morpholin-4-yl-5-oxo-5,6,7,8-tetrahydro-9-oxa-1,3,6-triazabenzocyclohepten-4-yl)phenyl]urea]
IC50 [1]: 800 nM | IC50 (U87MG tumour cells): > 10000 nM | PI3Ka IC50 (PI3Kα (p110α/p85α)): 2159 nM

CCN1CC(C)(C)Oc2nc(N3CC4CCC(C3)O4)nc(-c3ccc(N)nc3)c2C1=O [Example 107, 4-(6-Aminopyridin-3-yl)-6-ethyl-8,8-dimethyl-2-(8-oxa-3-azabicyclo[3.2.1]oct-3-yl)-7,8-dihydro-6H-9-oxa-1,3,6-triazabenzocyclohepten-5-one]
IC50 [1]: 2650 nM | IC50 (U87MG tumour cells): > 10000 nM | PI3Ka IC50 (PI3Kα (p110α/p85α)): 9380 nM

CCNC(=O)Nc1ccc(-c2nc(N3CC4CCC(C3)O4)nc3c2C(=O)N(CCCO)CC(C)(C)O3)cc1 [Example 9, 1-ethyl-3-{4-[6-(3-hydroxypropyl)-8,8-dimethyl-2-(8-oxa-3-azabicyclo[3.2.1]oct-3-yl)-5-oxo-5,6,7,8-tetrahydro-9-oxa-1,3,6-triazabenzocyclohepten-4-yl]phenyl}urea]
IC50 [1]: 65 nM | IC50 (U87MG tumour cells): 2500 nM | PI3Ka IC50 (PI3Kα (p110α/p85α)): >10000 nM

CCNC(=O)Nc1ccc(-c2nc(N3C[C@@H](C)O[C@@H](C)C3)nc3c2C(=O)N(CC)CC(C)(C)CO3)cc1 [Example 109, 1-{4-[2-((2S,6R)-2,6-Dimethylmorpholin-4-yl)-6-ethyl-8,8-dimethyl-5-oxo-6,7,8,9-tetrahydro-5H-10-oxa-1,3,6-triazabenzocycloocten-4-yl]phenyl}-3-ethylurea]
IC50 [1]: 7770 nM | PI3Ka IC50 (PI3Kα (p110α/p85α)): 2046 nM

CCN1CC(C)(C)Oc2nc(N3CC4CCC(C3)O4)nc(-c3ccc(NS(=O)(=O)CC)cc3)c2C1=O [Example 111, Ethanesulfonic acid {4-[6-ethyl-8,8-dimethyl-2-(8-oxa-3-azabicyclo[3.2.1]oct-3-yl)-5-oxo-5,6,7,8-tetrahydro-9-oxa-1,3,6-triazabenzocyclohepten-4-yl]phenyl}amide]
IC50 [1]: 6350 nM | PI3Ka IC50 (PI3Kα (p110α/p85α)): >10000 nM

CCN1CC(C)(C)Oc2nc(N3CC4CCC(C3)O4)nc(-c3ccc(OC)c(CO)c3)c2C1=O [Example 101, 6-Ethyl-4-(3-hydroxymethyl-4-methoxyphenyl)-8,8-dimethyl-2-(8-oxa-3-azabicyclo[3.2.1]oct-3-yl)-7,8-dihydro-6H-9-oxa-1,3,6-triazabenzocyclohepten-5-one]
IC50 [1]: 4040 nM | IC50 (U87MG tumour cells): > 10000 nM

CCN1CC(C)(C)Oc2nc(N3CC4CCC(C3)O4)nc(-c3ccc(NC(=O)NC(C)(C)CO)c(F)c3)c2C1=O [Example 224, 1-{4-[6-Ethyl-8,8-dimethyl-2-(8-oxa-3-azabicyclo[3.2.1]oct-3-yl)-5-oxo-5,6,7,8-tetrahydro-9-oxa-1,3,6-triazabenzocyclohepten-4-yl]-2-fluorophenyl}-3-(2-hydroxy-1,1-dimethylethyl)urea]
IC50 [1]: 1120 nM | PI3Ka IC50 (PI3Kα (p110α/p85α)): >10000 nM

CC1(C)CNC(=O)c2c(nc(N3CCOCC3)nc2-c2ccc(N)nc2)O1 [Example 95, 4-(6-Aminopyridin-3-yl)-8,8-dimethyl-2-morpholin-4-yl-7,8-dihydro-6H-9-oxa-1,3,6-triazabenzocyclohepten-5-one]
IC50 [1]: 624 nM | PI3Ka IC50 (PI3Kα (p110α/p85α)): >10000 nM

COCCN1CC(C)(C)Oc2nc(N3CCOC[C@@H]3C)nc(-c3ccc(NC(=O)NCC(C)(C)O)c(F)c3)c2C1=O [Example 226, 1-{2-Fluoro-4-[6-(2-methoxyethyl)-8,8-dimethyl-2-((S)-3-methylmorpholin-4-yl)-5-oxo-5,6,7,8-tetrahydro-9-oxa-1,3,6-triazabenzocyclohepten-4-yl]phenyl}-3-(2-hydroxy-2-methylpropyl)urea]
IC50 [1]: 1280 nM | PI3Ka IC50 (PI3Kα (p110α/p85α)): >10000 nM

— US9120812B2, “Pyrimidooxazocine derivatives as mTOR-inhibitors” (SANOFI, priority 2012, dated 2015)
